Our source for the EC50 values is patent EP2305660A1, “New thiadiazole derivatives” (Almirall, S.A., priority 2009, dated 2011).

Structures are written as SMILES. Where a name gives a salt, the structure may show the parent alone.

The target of this assay is S1P1 (Homo sapiens, UniProt P21453). Put plainly: 35S-GTPyS binding assay (membranes). The assay is classed as biochemical. Conditions: compound 0.1nM-10µM, 0.1nM 35S-GTPyS, 10µM S1P as 100% maximum efficacy, 90 min at room temperature. As for the experimental part: The effect of the compounds was measured using a 35S-GTPyS binding assay. Briefly, membranes were incubated in a buffer containing 20 mM HEPES pH 7.4, 100 mM NaCl, 10 mM MgCl2, 10µM GDP, 50µg/ml saponin and 0.2% fatty acid-free BSA at various concentrations (0.1nM-10µM) and 0.1nM 35S-GTPyS. 10µM S1P was used as 100% maximum efficacy. The assay was incubated for 90 min at room temperature with gentle mixing, and terminated by filtrating the reaction mixture through GF/C filter plates using the Manifold Filtration System. The filters were immediately washed with sodium phosphate pH 7.4 buffer. After drying the filter plates scintillant liquid were added to each well and 35S-GTPyS binding was measured on a Trilux Scintillation Counter.
S1P1, sequence (P21453 whole entry, species assumed): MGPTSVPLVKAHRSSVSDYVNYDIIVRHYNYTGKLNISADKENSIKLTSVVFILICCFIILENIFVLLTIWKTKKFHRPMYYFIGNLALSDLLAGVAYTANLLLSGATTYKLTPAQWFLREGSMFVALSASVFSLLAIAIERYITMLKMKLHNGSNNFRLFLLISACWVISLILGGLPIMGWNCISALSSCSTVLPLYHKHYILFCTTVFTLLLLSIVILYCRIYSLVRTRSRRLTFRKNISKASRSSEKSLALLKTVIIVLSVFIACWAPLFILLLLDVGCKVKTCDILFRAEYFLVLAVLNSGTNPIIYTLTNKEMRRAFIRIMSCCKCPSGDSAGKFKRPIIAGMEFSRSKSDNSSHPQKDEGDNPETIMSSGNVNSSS
On to `CCCCN(C(=O)c1ccccc1F)c1nnc(-c2cc(C)c(OCCN3CC(C(=O)O)C3)c(C)c2)s1` [Example 1, 1-[2-(4-{5-[Butyl(2-fluorobenzoyl)amino]-1,3,4-thiadiazol-2-yl}-2,6-dimethylphenoxy)ethyl]azetidine-3-carboxylic acid], for which the concentration giving a half-maximal response (EC50) (commonly the concentration that produces a half-maximal response) turned out to be 2.5 nM.
In the case of `CCCCN(C(=O)c1ccccc1F)c1nnc(-c2cc(C)c(OCCNCCc3nn[nH]n3)c(C)c2)s1` [Example 12, N-butyl-N-{5-[3,5-dimethyl-4-(2-{[2-(2H-tetrazol-5-yl)ethyl]amino}ethoxy)phenyl]-1,3,4-thiadiazol-2-yl}-2-fluorobenzamide] it was 0.4 nM; in that of `Cc1cc(-c2nnc(N(CC3CC3)C(=O)c3ccccc3Cl)s2)cc(C)c1OCCN1CCC(CC(=O)O)CC1` [Example 23, {1-[2-(4-{5-[(2-chlorobenzoyl)(cyclopropylmethyl)amino]-1,3,4-thiadiazol-2-yl}-2,6-dimethylphenoxy)ethyl]piperidin-4-yl}acetic acid hydrochloride], 4.1 nM; in that of `CCCCN(C(=O)c1ccccc1F)c1nnc(-c2ccc(CN3CC(c4nnn[nH]4)C3)cc2)s1` [Example 30, N-butyl-2-fluoro-N-[5-(4-{[3-(1H-tetrazol-5-yl)azetidin-1-yl]methyl}phenyl)-1,3,4-thiadiazol-2-yl]benzamide], 2.3 nM.
The value for `CCCCN(C(=O)c1ccccc1F)c1nnc(-c2cc(C)c(OCCNCCn3cncn3)c(C)c2)s1` [Example 31, N-butyl-N-{5-[3,5-dimethyl-4-(2-{[2-(1H-1,2,4-triazol-1-yl)ethyl]amino}ethoxy)-phenyl]-1,3,4-thiadiazol-2-yl}-2-fluorobenzamide] was 4.1 nM; that for `CCCCN(C(=O)c1ccccc1F)c1nnc(-c2ccc(CNCCO)cc2)s1` [Example 36, N-butyl-2-fluoro-N-[5-(4-{[(2-hydroxyethyl)amino]methyl}phenyl)-1,3,4-thiadiazol-2-yl]benzamide, formate salt] was 40 nM; that for `CCCCN(C(=O)Nc1ccccc1)c1nnc(-c2ccc(CN3CC(C(=O)O)C3)cc2)s1` [Example 40, 1-(4-{5-[(anilinocarbonyl)(butyl)amino]-1,3,4-thiadiazol-2-yl}benzyl)azetidine-3-carboxylic acid] was 70 nM.
In the case of `CCCCN(C(=O)c1ccccc1F)c1nnc(-c2cc(C)c(OCCN(C)CCO)c(C)c2)s1` [Example 57, N-butyl-2-fluoro-N-[5-(4-{2-[(2-hydroxyethyl)(methyl)amino]ethoxy}-3,5-dimethylphenyl)-1,3,4-thiadiazol-2-yl]benzamide] it was 8.5 nM.
